Results on one molecule are retold here after patent US20230035127A1, “CULTURE AND DIFFERENTIATION OF PLURIPOTENT STEM CELLS” (University of Maryland, College Park, priority 2021, published 2023).

“Also recorded” adds a separate entry of the source. Bounds are passed on as bounds.

Experiment [1] relates to IMR90-1 human iPSCs. In words: Immunostaining of IMR90-1 cardiac spheroids. The following applies: day 12.5. In kind it is cell-based. How it is done:
The iPSC spheroids and the iPSC-derived Cardiac spheroids were fixed in 4% PFA in 1×PBS at 4° C. overnight. The fixed spheroids were incubated sequentially in 10% and 15% sucrose solutions in saline for 4 h, respectively. Afterward, the spheroids were put in a plastic box and embedded in OCT for cryosectioning. Slices of the spheroids of 10 μm thick were obtained by cutting the frozen sample on a Leica cryostat platform and then immediately attached onto the Leica Apex high adhesive glass slides.
For immunostaining, the slides were gently rinsed twice with 1×PBS to remove the OCT and then incubated with 0.1% Tween-20 and 5% normal goat serum in 1×PBS for 1 h at room temperature (RT) to block non-specific bindings. Later, the samples were incubated with primary antibodies at 4° C. overnight. The dilution and product information of the primary antibodies were as follows: OCT-4 (1:500 dilution, Cell Signaling Technologies), NANOG (1:500 dilution, Cell Signaling Technologies), SSEA-4 (1:500 dilution, Cell Signaling Technologies), cTnT (1:500 dilution, Cell Signaling Technologies), CONNEXIN-43 (CX-43, 1:400 dilution, Santa Cruz Biotechnology), DESMIN (1:500 dilution, Santa Cruz Biotechnology), α-ACTININ (1:500 dilution; Santa Cruz Biotechnology), BRACHYURY (1:500; Santa Cruz Biotechnology), NKX2.5 (1:500; Santa Cruz Biotechnology), NESTIN (1:500; R & D Systems), MUSASHI-1 (1:500; R & D Systems), and TUJ-1 (1:500; R & D Systems). Afterward, the samples were rinsed with 1×PBS thrice and then incubated with the associated secondary antibodies (goat anti-rabbit IgG FITC and goat-anti-mouse IgG PE, Invitrogen) in 1×PBS for 1.5 h at RT. Lastly, the samples were rinsed with 1 ml of 1×PBS for 3 min and the nuclei were stained with 1 μg/ml DAPI solution for 5 min at RT. The samples were imaged with the Zeiss LSM 710 microscope.

A further experiment concerns eiPSCs. In words: Survival/yield of PSCs in 3D suspension culture. As to conditions: for improvement of cell yield (number of viable cells): 3D culture. In kind it is cell-based, human. How it is done:
(§1) To obtain 3D iPSC spheroids, the iPSC colonies under 2D culture at ˜80% confluence were treated with Versene for 2 min, rinsed with PBS, and further detached from the substrate by gentle pipetting. The detached iPSCs were re-suspended in mTeSR1 with Rock inhibitor (Y27632) at 0, 1, 5, or 10 μM. Afterward, the medium was supplemented with 0.35% (v/v) methylcellulose. The cell suspension (12 ml) containing ˜4×10^6 cells was pushed through a cell strainer with 100 μm mesh size. Later, the suspension of iPSC clumps was transferred into a petri dish (diameter: 10 cm) for culture in a humidified incubator at 37° C. and 5% CO2 for 2 days, during which the 2D iPSC clumps grew into 3D iPSC spheroids. Then, the medium was changed to mTeSR1 (supplemented with 0.35% methylcellulose) with no rock inhibitor, to further culture for 2 days before cardiac differentiation. To determine the number of cells per eiPSC spheroid, roughly equal numbers of the spheroids from either the 1 or 10 μM RI group were pooled together and trypsinized to dissociate the cells. The dissociated cells were then resuspended in 1.4 ml of the aforementioned iPSC maintenance medium and the cell number was counted using a hemocytometer. Three independent runs with 282, 260, and 256 spheroids for the 1 μM RI group and 273, 298, and 286 spheroids for the 10 μM RI group were conducted.

In experiment [2] the test system is IMR90-1 human iPSCs. The experiment in a line: 3D cardiac differentiation of IMR90-1 iPSCs: beating cardiac spheroids. In kind it is cell-based. The following applies: for percentage of beating IMR90-1 cardiac spheroids: 10 μM RI. The procedure: Another commonly utilized iPSC line (IMR90-1) was tested to confirm that the improved cardiac differentiation of iPSCs with low RI for 3D culture before differentiation is not because of the eiPSCs used. The beating of the resultant IMR90-1 cardiac spheroids peaked at ˜98% on day 7.5 with the OBT being synchronized within ˜1 day for the 1 μM RI group (FIG. 19A). […] This was consistent with the flow cytometry data of the cells in the cardiac spheroids collected on day 12.5, showing that 91% and 32% of the cells were positive for the cardiac-specific protein cTnT (that are crucial for beating) in the 1 and 10 μM RI groups, respectively (FIG. 19B-C). Furthermore, cells in the cardiac spheroids that were positive for neural-specific maker MUSASHI were negligible in the 1 μM RI group, while ˜20% cells in the cardiac spheroids from the 10 μM RI group were MUSASHI positive (FIG. 19B-C).
as §1
The eiPSC spheroids obtained after 4 days of culture on day 0 were induced into mesoderm by up-regulation of the Wnt signaling pathway using 8 μM CHIR99021 and 2 μM GSK inhibitor 6-bromoindirubin-3′-oxime (BIO) in the mesoderm induction medium for 1 day. The mesoderm induction medium was a mixture of DMEM/F12 and α-MEM (v/v, 1:1), containing 2% Knockout Serum Replacement (KOSR), 1 mM L-glutamine, 1% MEM non-essential amino acids (NEAA), and 0.1 mM β-mercaptoethanol. […]

The test system of the next experiment is human eiPSCs. The experiment in a line: 2D re-plating of 3D iPSC spheroids on Matrigel (colony morphology, immunostaining). In kind it is cell-based. As to conditions: day 0 spheroids cultured 2 days in 2D. The procedure: To further confirm the aforementioned difference in morphology and protein expression between the 1 and 10 μM RI groups, the 3D iPSC spheroids obtained with 0, 1, and 10 μM RI concentrations collected on day 0 (i.e., after 4-day culture in 3D) were plated on the 2D surface coated with Matrigel in Petri dish (i.e., under conventional 2D culture) and cultured for 2 days to observe the cell morphology.

With `C[C@@H](N)[C@H]1CC[C@H](C(=O)Nc2ccncc2)CC1.Cl.Cl` (relative stereo) [RI, (+)-(R)-trans-4-(1-aminoethyl)-N-(4-pyridyl) cyclo-hexanecarboxamide dihydrochloride], the “expression of cTnT and CX-43” value is “high with an evident expression of the gap junction protein CX-43” in the experiment with IMR90-1 human iPSCs [1] (1 μM RI); “low and negligible, respectively” in the experiment on IMR90-1 human iPSCs [1] (10 μM RI). Also, the “immunostaining of neural markers MUSASHI and TUJ-1” value in the experiment with IMR90-1 human iPSCs [1] (1 μM RI) is “negligible”; in the experiment on IMR90-1 human iPSCs [1] (10 μM RI), “existence of MUSASHI- and TUJ-1-positive cells”. Besides, the “cell survival and yield” value in the experiment on eiPSCs (1 μM RI compared to 0 μM RI control, day 0, dihydrochloride) was “significantly more; also recorded: significantly increases”. Further, the “improvement of cell yield (number of viable cells)” value in the experiment on eiPSCs (10 μM RI compared to 0 μM RI) is “about 3 times”; in the experiment on eiPSCs (10 μM RI compared to 1 μM RI), about 2 times. In addition, the “outset beating time (OBT) synchronized within” value in the experiment with IMR90-1 human iPSCs [2] (1 μM RI) is at most 1 days. Further, the “time within which cardiac spheroids start to beat” value with IMR90-1 human iPSCs [2] (1 μM RI) is listed as at most 24 h. Besides, the “percentage of beating IMR90-1 cardiac spheroids” value stood at 11.5% in the experiment on IMR90-1 human iPSCs [2] (day 7.5) and 34.1% in the experiment on IMR90-1 human iPSCs [2] (in a week, day 13.5). For the same molecule, the “immunostaining of neural and pluripotency markers in re-plated colonies” value in the experiment with human eiPSCs (1 μM RI) is “positive expression of OCT-4 and NANOG and were negative for NESTIN and TUJ-1”; with human eiPSCs (10 μM RI) it was “positive staining of neural markers (NESTIN and TUJ-1) and weakened/no staining of pluripotency markers (OCT-4 and NANOG)”. For the same molecule, the “morphology of re-plated eiPSC colonies” value with human eiPSCs (1 μM RI) is recorded as “typical with tightly packed cells”; with human eiPSCs (10 μM RI), “more loosely packed”.
